In ChEMBL document CHEMBL1201862, “PubChem BioAssay data set” (2004):
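Tested at 5 concentrations; 48 h exposure; 96-well plates; endpoints linearly interpolated, else capped at highest concentration. GI50 marks 50% less growth.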 The source made the active and inactive calls. No stated cut-off is given here; in the data, active = GI50 up to about 1.1 µM and inactive = higher.

Experiments:
Test in all cases: inhibition of tumour cell growth, NCI panel, 48 h
[1] = system: SNB-75
[2] = system: Malme-3M
[3] = system: 786-0
[4] = system: K562
[5] = system: SK-MEL-2
[6] = system: SF-539
[7] = system: CCRF-CEM
[8] = system: OVCAR-4
[9] = system: COLO 205
[10] = system: KM12
[11] = system: A549
[12] = system: TK-10
[13] = system: RXF 393
[14] = system: RPMI-8226
[15] = system: UO-31
[16] = system: M14
[17] = system: NCI-H522

Measured: GI50

CC(C)(C)/N=C\N(C=C(c1ccccc1)c1ccccc1)C1CCCCC1
inactive: [1] 33.7 µM | [2] 17.1 µM | [3] 82.4 µM | [4] 17.7 µM | [5] 60.8 µM | [6] 50.5 µM | [7] 34.8 µM | [8] 39.4 µM | [9] 22.7 µM | [10] 36.2 µM | [11] 81.3 µM | [12] 78.3 µM | [13] 19.4 µM

Cn1cnc([N+](=O)[O-])c1Sc1nc2ccccc2[nH]1
inactive: [1] 18.4 µM | [2] 16.3 µM | [14] 15.5 µM | [3] 41.1 µM | [4] 20.3 µM | [15] 19.9 µM | [6] 14.2 µM | [7] 17.9 µM | [8] 33 µM | [16] 24.2 µM | [9] 10.4 µM | [10] 19.5 µM | [11] 19.4 µM | [12] 19.3 µM | [13] 11.4 µM

Clc1cccc(Cl)c1C1SCc2nc3ccccc3n21 (stereo not drawn)
inactive: [1] 88.3 µM | [2] > 100 µM | [14] 9.2 µM | [3] > 100 µM | [4] 10.7 µM | [15] > 100 µM | [6] > 100 µM | [7] 54.5 µM | [8] 83.9 µM | [17] > 100 µM | [16] > 100 µM | [9] > 100 µM | [10] > 100 µM | [11] > 100 µM | [12] > 100 µM | [13] > 100 µM

CCOC(=O)C(=O)CC(=O)C(Br)C(Br)c1ccc(Cl)cc1 (stereo not drawn)
inactive: [1] > 100 µM | [2] 31.8 µM | [14] 22.3 µM | [3] 17.5 µM | [4] 17.6 µM | [15] > 100 µM | [5] > 100 µM | [7] 8.36 µM | [8] 65.9 µM | [17] 23.6 µM | [16] 21.8 µM | [9] 23.3 µM | [10] 57.9 µM | [11] > 100 µM | [12] 52.2 µM | [13] 30.4 µM

CC(O)CNC(=O)C(C)Oc1ccc(OCC2CCCCC2)cc1 (stereo not drawn)
inactive: [1] > 100 µM | [2] > 100 µM | [3] > 100 µM | [4] > 100 µM | [15] > 100 µM | [5] > 100 µM | [6] > 100 µM | [7] > 100 µM | [8] > 100 µM | [17] > 100 µM | [16] > 100 µM | [10] > 100 µM | [11] > 100 µM | [12] > 100 µM

CCOC(=O)CC(NC(=O)c1nc[nH]c1/N=N/N(C)C)C(=O)OCC (stereo not drawn)
inactive: [1] > 100 µM | [2] > 100 µM | [14] > 100 µM | [3] > 100 µM | [4] > 100 µM | [15] > 100 µM | [5] > 100 µM | [6] > 100 µM | [7] > 100 µM | [8] > 100 µM | [17] > 100 µM | [16] > 100 µM | [9] > 100 µM | [10] > 100 µM | [11] > 100 µM | [12] > 100 µM

Cn1ncc2c(Nc3ccc(Cl)cc3)c3ccccc3nc21
inactive: [1] 10.8 µM | [2] 20.2 µM | [14] 20.1 µM | [3] 14.1 µM | [4] 16.2 µM | [15] > 10 µM | [5] 18.4 µM | [6] 15.6 µM | [7] 17.9 µM | [8] 12.4 µM | [17] 19.4 µM | [16] 14.8 µM | [9] 19.7 µM | [10] 18.7 µM | [11] 15.3 µM | [12] 21.4 µM

O=C1c2ccccc2C(=O)N1CC#CCO
inactive: [3] > 100 µM | [4] > 100 µM | [15] > 100 µM | [5] > 100 µM | [6] > 100 µM | [7] > 100 µM | [8] > 100 µM | [17] > 100 µM | [16] > 100 µM | [10] > 100 µM | [11] > 100 µM | [12] > 100 µM | [13] > 100 µM

CC[C@H](C)N(CCN)C(=O)c1cc2ccccc2c(-c2ccccc2Cl)n1
inactive: [14] 13.2 µM | [3] 4.49 µM | [4] 3.05 µM | [15] 12.7 µM | [5] 18.8 µM | [6] 2.15 µM | [7] 3.3 µM | [8] 14.6 µM | [17] 17.5 µM | [16] 17.8 µM | [9] 4.54 µM | [10] 14.9 µM | [11] 4.41 µM | [12] 12.1 µM | [13] 6.55 µM

CCN(CC)CCC(=O)NC1c2ccccc2Oc2c(C)cccc21 (stereo not drawn)
inactive: [1] > 100 µM | [14] > 100 µM | [3] > 100 µM | [4] > 100 µM | [15] 63.7 µM | [6] > 100 µM | [7] > 100 µM | [8] > 100 µM | [16] > 100 µM | [9] > 100 µM | [11] > 100 µM | [12] > 100 µM | [13] > 100 µM

COc1cc(OC)c(Oc2cccc(OC)c2OC)c(OC)c1
inactive: [1] > 100 µM | [3] > 100 µM | [4] > 100 µM | [15] > 100 µM | [5] > 100 µM | [6] > 100 µM | [7] > 100 µM | [8] > 100 µM | [17] > 100 µM | [16] > 100 µM | [9] > 100 µM | [10] > 100 µM | [11] > 100 µM | [12] > 100 µM

CCN(CC)CC1CCCCN1CC(=O)N1c2cc(Cl)ccc2NC(=O)CC1C (stereo not drawn)
inactive: [1] > 100 µM | [2] > 100 µM | [14] > 100 µM | [3] > 100 µM | [4] > 100 µM | [15] > 100 µM | [5] > 100 µM | [6] > 100 µM | [7] > 100 µM | [8] > 100 µM | [17] > 100 µM | [16] > 100 µM | [9] > 100 µM | [10] > 100 µM | [11] > 100 µM | [12] > 100 µM

COC(=O)/C(C#N)=C1\NC(=O)c2ccccc21
inactive: [1] 2.4 µM | [2] > 100 µM | [14] > 100 µM | [3] > 100 µM | [4] > 100 µM | [15] > 100 µM | [6] > 100 µM | [7] > 100 µM | [8] > 100 µM | [17] > 100 µM | [16] > 100 µM | [9] > 100 µM | [10] > 100 µM | [11] > 100 µM | [12] > 100 µM | [13] > 100 µM
